Measured values published in patent US6608178B1, “5-hydroxytryptophol (5-HTOL) derivatives, antibodies, immunoassays and detection of recent alcohol consumption” (Alco Dia A.B., priority 1996, dated 2003).

Test system: mouse monoclonal anti-5-HTOL antibody
Assay: Cross reactivity in the competitive immunoassay (labelled conjugate IV vs. anti-5-HTOL antibody)
Type: binding
Conditions: allowable maximal cross reactivity in urine for a 50 nM detection limit of T-5-G; the tested antibody complied with these criteria
Protocol: Crossreactivity for various substances was measured in the immunoassay method described below with dilutions (in the diluent) of the tested substance used in stead of urine or standard. The concentration range tested for each substance covered three magnitudes and was up to or above one magnitude the highest noted literature value.
Diluent was 0.05 M sodium phosphate buffer, pH 7.0, containing 0.01 M EDTA, 0.1% Tween® and 1% BSA. Decanting solution was Pharmacia decanting suspension without added antibody suspension (Pharmacia Diagnostics AB). μ-agarose particles carried covalently bound sheep-anti-mouse antibody.
Assay Procedure: Pipette to a test tube 50 μl urine or standard, 50 μl tracer solution, 50 μl antibody solution (one of the above-mentioned six selected clones, 5 μg/ml), mix on shaker ˜600 rpm for ˜1 min, allow to stand for 1.5 h at room temperature, 50 μl of the sheep anti-mouse micro-agarose suspension (˜100 mg/ml), mix as above and let stand for another 0.5 h, then add 2 ml decanting solution, centrifuge 10 min at 3000 rpm, with tubes in Pharmacia decanting racks, in the JR-3.2 Rack Rotor, in a Beckman J-6B centrifuge. Within 5 min after completed centrifugation decant the supernatant and let tube racks stand inverted on absorbtive tissue for 2 min. Finally the remaining radioactivity in the tubes is measured in a gamma counter. A standard curve is made with T-5-G in the diluent at 10, 100, 1000 and 10000 nmol/L.
In the case of `O=C(O)Cc1c[nH]c2ccc(O)cc12` [5-HIAA, 5-hydroxyindole-3-acetic acid], the “Acceptable Crossreactivity” value is reported as at most 0.07%. In the case of `N[C@@H](Cc1c[nH]c2ccc(O)cc12)C(=O)O` [5-hydroxytryptophan], the “Acceptable Crossreactivity” value is reported as at most 0.1%. For `COc1ccc2[nH]cc(CCN)c2c1` [5-methoxytryptamine], the “Acceptable Crossreactivity” value was at most 5%. For `COc1ccc2[nH]cc(CCO)c2c1` [5-methoxytryptophol], the “Acceptable Crossreactivity” value was at most 5%. In the case of `C[C@]12CC[C@@H]3c4ccc(O[C@@H]5O[C@H](C(=O)O)[C@@H](O)[C@H](O)[C@H]5O)cc4CC[C@H]3[C@@H]1CCC2=O` [estrone-β-D-glucuronide], the “Acceptable Crossreactivity” value is reported as at most 50%. In the case of `O=Cc1c[nH]c2ccccc12` [indole-3-aldehyde], the “Acceptable Crossreactivity” value is reported as at most 0.05%. For `O=C(O)Cc1c[nH]c2ccccc12` [indolyl acetic acid], the “Acceptable Crossreactivity” value was at most 0.07%. With `O=S(=O)(O)Oc1c[nH]c2ccccc12` [indoxyl sulphate] the “Acceptable Crossreactivity” value was at most 0.002%. In the case of `O=C(O)[C@H]1O[C@@H](Oc2c[nH]c3ccccc23)[C@H](O)[C@@H](O)[C@@H]1O` [indoxyl-β-D-glucuronide], the “Acceptable Crossreactivity” value is reported as at most 0.002%. In the case of `COc1ccc2[nH]cc(CCNC(C)=O)c2c1` [melatonin], the “Acceptable Crossreactivity” value is reported as at most 50%. With `O=C(O)[C@H]1O[C@@H](Oc2ccc([N+](=O)[O-])cc2)[C@H](O)[C@@H](O)[C@@H]1O` [p-nitrophenyl-β-D-glucuronide] the “Acceptable Crossreactivity” value was at most 0.002%. For `NCCc1c[nH]c2ccc(O)cc12` [serotonin, 5-hydroxytryptamine], the “Acceptable Crossreactivity” value was at most 7%. With `CC12CCC(=O)C=C1CCC1C2CCC2(C)C(OC3OC(C(=O)O)C(O)C(O)C3O)CCC12` [testosterone-β-D-glucuronide] the “Acceptable Crossreactivity” value was at most 50%. With `NCCc1c[nH]c2ccccc12` [tryptamine] the “Acceptable Crossreactivity” value was at most 6%. In the case of `N[C@@H](Cc1c[nH]c2ccccc12)C(=O)O` [tryptophan], the “Acceptable Crossreactivity” value is reported as at most 0.6%.

Test system: not given
Assay: not given
Conditions: human urine; cited from earlier work
In the case of `O=C(O)[C@H]1O[C@@H](Oc2ccc3[nH]cc(CCO)c3c2)[C@H](O)[C@@H](O)[C@@H]1O` [T-5-G, 3-(2-hydroxyethyl)indole-5-yl-O-β-D-glucopyranosiduronic acid], the “Share of urinary 5-HTOL conjugated with glucuronic acid” value is given as 75-95%.
